Results as given in US20090209619A1, “Depression of herg k+ channel function in mammallan cells and applications to the control of cancer cells division” (priority 2004, published 2009).
Marks after values point to notes of the source that are not given here.

Assays:
MCF-7 [1] = assay: Cancer cell proliferation by population doubling time (PDT), MCF-7; assay type: cell-based, human; conditions: blocker 1 μM; for population doubling time: 30 min in serum-free medium, cells counted 5 h and 48 h after seeding
Procedure: (§1) The human breast cancer cell lines MCF-7, BT132, and Sk-Br-3, human neuroblastoma cell line SHSY5Y, murine atrial tumor cell line HL-1 were used. These cell are known to express HERG channels. For chemical blocking of HERG conductance, tumor cells were incubated with dofetilide (1 μM), the anti-arrhythmic agent E4031 (1 μM) or cisapride (1 μM) for 30 min in serum-free medium. Control experiments wherein no dofetilide, no E-4031 and no cisapride was used were also performed.
(§2) Cell proliferation was assessed by characterizing the log phase growth with population doubling time (PDT) calculated by the equation: 1/(3.32*(log NH−log NI)/(t2−t1)), where NH is the number of cells harvested at the end of the growth period (at time t2) and NI is the number of cells at 5 hours (t1) after seed. Cells were counted by a flow cytometer (EPICS XL; Beckman Coulter Canada, Inc.), and the number obtained at 5 h (t1) after seeding was taken as an initial cell number (NI), and the number at 48 h (t2) after seeding was taken as an endpoint number (NH). The longer the PDT is, the slower the growth is.
(§3) In experiments involving interference RNA, in this case siRNA, the cells were transfected with siRNA using lipofectamine-2000 as a carrier to deliver the siRNA to the cells, according to the manufacturer's protocols. The sequence of our siRNA targeting HERG position 3498 bp is […] (SEQ ID NO:1). A negative control targeting the following sequence: […] (SEQ ID NO:2) has been used. The siRNA is designed as cassette using U6 as the promoter and its efficacy was validated by its ability to decrease HERG mRNA by around 78% determined by real-time RT-PCR. SiRNA targeting the following 2 target sequences: […] (SEQ ID 03) (starting at 255 bp) and […] (SEQ ID 04) (starting at 2609 bp) has also been tested. As an siRNA cassette is used, these sequences (SEQ ID 01-04) are also DNA sequences that are injected in the cells to produce in situ the siRNA that will interfere with expression of the HERG gene.

Sk-Br-3 [2] = assay: Cancer cell proliferation by population doubling time (PDT), Sk-Br-3; assay type: cell-based, human; conditions: blocker 1 μM; for population doubling time: 30 min in serum-free medium, cells counted 5 h and 48 h after seeding
Procedure: as §1, §2, §3

BT132 = assay: Cancer cell proliferation by population doubling time (PDT), BT132; assay type: cell-based, human; conditions: blocker 1 μM; for population doubling time: 30 min in serum-free medium, cells counted 5 h and 48 h after seeding
Procedure: as §1, §2, §3

SHSY5Y = assay: Cancer cell proliferation by population doubling time (PDT), SHSY5Y; assay type: cell-based, human; conditions: blocker 1 μM; for population doubling time: 30 min in serum-free medium, cells counted 5 h and 48 h after seeding
Procedure: as §1, §2, §3

HL-1 = assay: Cancer cell proliferation by population doubling time (PDT), HL-1; assay type: cell-based, murine; conditions: blocker 1 μM; for population doubling time: 30 min in serum-free medium, cells counted 5 h and 48 h after seeding
Procedure: as §1, §2, §3

MCF-7 [3] = assay: Tumor growth in nude mice inoculated subcutaneously with MCF-7; conditions: for tumor volume, Day 7 / tumor volume, Day 1: MCF-7 tumor in nude mice, 5 μg/tumor single intratumoral injection; for tumor volume, Day 7: 7 days after treatment; for tumor volume, Day 1: day of treatment; for % changes of tumor volume over control: MCF-7 tumor, 5 μg/tumor, day 7
SK-BR-3 [4] = assay: Tumor growth in nude mice inoculated subcutaneously with SK-BR-3; conditions: for tumor volume, Day 7 / tumor volume, Day 1: Sk-Br-3 tumor in nude mice, 5 μg/tumor single intratumoral injection; for tumor volume, Day 7: 7 days after treatment; for tumor volume, Day 1: day of treatment; for % changes of tumor volume over control: Sk-Br-3 tumor, 5 μg/tumor, day 7
MCF-7 cells = conditions: cited from earlier work
EAG = target: T1, EAG (Homo sapiens, UniProt O95259); conditions: extracellular perfusion; cited from earlier work
T1 sequence (O95259 1-989): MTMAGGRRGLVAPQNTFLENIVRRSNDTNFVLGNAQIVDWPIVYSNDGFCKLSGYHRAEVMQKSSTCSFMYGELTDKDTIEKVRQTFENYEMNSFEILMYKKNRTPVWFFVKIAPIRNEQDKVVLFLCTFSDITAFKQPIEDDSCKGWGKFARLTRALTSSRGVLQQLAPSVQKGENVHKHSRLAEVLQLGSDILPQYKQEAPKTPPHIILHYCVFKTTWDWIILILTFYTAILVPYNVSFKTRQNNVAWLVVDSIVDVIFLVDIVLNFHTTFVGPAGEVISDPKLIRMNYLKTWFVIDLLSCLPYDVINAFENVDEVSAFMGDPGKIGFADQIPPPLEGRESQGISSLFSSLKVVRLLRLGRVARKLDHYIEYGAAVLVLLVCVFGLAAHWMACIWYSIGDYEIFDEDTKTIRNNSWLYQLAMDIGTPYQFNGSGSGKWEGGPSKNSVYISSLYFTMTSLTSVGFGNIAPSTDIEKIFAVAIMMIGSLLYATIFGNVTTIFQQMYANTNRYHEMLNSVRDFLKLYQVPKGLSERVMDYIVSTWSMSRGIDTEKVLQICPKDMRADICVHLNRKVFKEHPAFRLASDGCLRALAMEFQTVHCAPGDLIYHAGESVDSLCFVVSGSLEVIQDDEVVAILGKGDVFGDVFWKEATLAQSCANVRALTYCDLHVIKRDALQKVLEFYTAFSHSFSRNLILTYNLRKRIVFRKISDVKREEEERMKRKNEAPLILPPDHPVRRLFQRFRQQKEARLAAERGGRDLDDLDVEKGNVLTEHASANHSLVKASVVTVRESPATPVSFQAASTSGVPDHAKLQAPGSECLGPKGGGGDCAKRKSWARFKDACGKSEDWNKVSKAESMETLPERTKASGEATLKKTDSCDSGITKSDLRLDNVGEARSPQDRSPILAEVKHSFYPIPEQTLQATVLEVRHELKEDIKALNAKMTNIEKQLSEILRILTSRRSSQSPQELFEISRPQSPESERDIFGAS

COc1cc(N)c(Cl)cc1C(=O)NC1CCN(CCCOc2ccc(F)cc2)CC1OC (stereo not shown) [Cisapride, cisapride]
% changes of population doubling time over control (MCF-7 [1]): 58%
population doubling time (MCF-7 [1]): 71.7 ± 7.3* hours
% changes of population doubling time over control (Sk-Br-3 [2]): 114%
population doubling time (Sk-Br-3 [2]): 174.3 ± 17.7* hours
% changes of population doubling time over control (BT132): 62%
population doubling time (BT132): 88.1 ± 9.0* hours
% changes of population doubling time over control (SHSY5Y): 57%
population doubling time (SHSY5Y): 92.0 ± 8.3* hours
% changes of population doubling time over control (HL-1): 47%
population doubling time (HL-1): 100.3 ± 9.8* hours
tumor volume, Day 7 (MCF-7 [3]): 3.0 ± 0.4^+ cm^3
tumor volume, Day 1 (MCF-7 [3]): 3.2 ± 0.5 cm^3
% changes of tumor volume over control (MCF-7 [3]): −42%
tumor volume, Day 7 (SK-BR-3 [4]): 3.1 ± 0.3^+ cm^3
tumor volume, Day 1 (SK-BR-3 [4]): 2.4 ± 1.3 cm^3
% changes of tumor volume over control (SK-BR-3 [4]): −45%

CN(CCOc1ccc(NS(C)(=O)=O)cc1)CCc1ccc(NS(C)(=O)=O)cc1 [Dofetilide, dofetilide]
% changes of population doubling time over control (MCF-7 [1]): 55%
population doubling time (MCF-7 [1]): 70.4 ± 6.2* hours
% changes of population doubling time over control (Sk-Br-3 [2]): 128%
population doubling time (Sk-Br-3 [2]): 184.0 ± 16.6* hours
% changes of population doubling time over control (BT132): 56%
population doubling time (BT132): 84.8 ± 7.5* hours
% changes of population doubling time over control (SHSY5Y): 59%
population doubling time (SHSY5Y): 95.2 ± 10.2* hours
% changes of population doubling time over control (HL-1): 30%
population doubling time (HL-1): 85.5 ± 9.2 h

Cc1cccc(CCN2CCC(C(=O)c3ccc(NS(C)(=O)=O)cc3)CC2)n1 [E-4031]
% changes of population doubling time over control (MCF-7 [1]): 43%
population doubling time (MCF-7 [1]): 64.9 ± 11.5* hours
% changes of population doubling time over control (Sk-Br-3 [2]): 98%
population doubling time (Sk-Br-3 [2]): 165.3 ± 15.2* hours
% changes of population doubling time over control (BT132): 48%
population doubling time (BT132): 80.5 ± 8.2* hours
% changes of population doubling time over control (SHSY5Y): 70%
population doubling time (SHSY5Y): 101.8 ± 11.5* hours
% changes of population doubling time over control (HL-1): 37%
population doubling time (HL-1): 93.5 ± 10.0* hours
tumor volume, Day 7 (MCF-7 [3]): 3.7 ± 0.8^+ cm^3
tumor volume, Day 1 (MCF-7 [3]): 3.5 ± 0.6 cm^3
% changes of tumor volume over control (MCF-7 [3]): −30%
tumor volume, Day 7 (SK-BR-3 [4]): 4.1 ± 0.6*^+ cm^3
tumor volume, Day 1 (SK-BR-3 [4]): 2.1 ± 1.0 cm^3
% changes of tumor volume over control (SK-BR-3 [4]): −28%

CCCCc1oc2ccccc2c1C(=O)c1cc(I)c(OCCN(CC)CC)c(I)c1 [amiodarone]
effect on growth/proliferation of MCF-7 human breast cancer cells (MCF-7 cells): inhibitory effects

COc1ccc(CCN2CCC(Nc3nc4ccccc4n3Cc3ccc(F)cc3)CC2)cc1 [astemizole]
inhibition of cell proliferation (MCF-7 cells; extracellular perfusion, cell line not given): ~23%
inhibition of EAG current (EAG): ~20%

Cc1cc(N)c2ccccc2[n+]1CCCCCCCCCC[n+]1c(C)cc(N)c2ccccc21 [dequalinium]
effect on growth/proliferation of MCF-7 human breast cancer cells (MCF-7 cells): inhibitory effects
